What all share (format): biochemical
Test [1] has as its target T1, human JAK1 (a.a. 837-1142) (Homo sapiens, UniProt P23458).
T1 construct: human JAK1 (a.a. 837-1142); His tag (N); made in house; host or cells: insect cells (baculovirus)
The experiment in a line: In vitro JAK kinase assay (HTRF, phosphorylation of a biotinylated peptide), JAK1. As to conditions: Table D1; read-out: JAK1 IC50. Put shortly:
(§1)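 Kinase activity was measured as phosphorylation of a biotinylated peptide, with ATP at 90 μM for JAK1, 30 μM for JAK2 and 3 μM for JAK3. Reactions ran 1 hr at room temperature, were stopped with EDTA plus SA-APC and Eu-Py20, and were read by HTRF after 40 minutes of antibody binding.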
A general note: In TR-FRET formats the signal depends on donor and acceptor labels being close together.

For a further test, the target named is TYK2 (Homo sapiens, UniProt P29597). The test is described as follows: TYK2 kinase inhibition (Table A1). The note with it: Table D1.
The target of test [2] is T2, human JAK2 (a.a. 828-1132) (Homo sapiens, UniProt O60674).
T2 construct: JAK2 (a.a. 828-1132); His tag (N); made in house; host or cells: insect cells (baculovirus)
The test is described as follows: In vitro JAK kinase assay (HTRF, phosphorylation of a biotinylated peptide), JAK2. The note with it: Table D1. Put shortly: as §1

The target of test [3] is T3, human JAK3 (a.a. 781-1124) (Homo sapiens, UniProt P52333).
T3 construct: JAK3 (a.a. 781-1124); His tag (N); made in house; host or cells: insect cells (baculovirus)
The test is described as follows: In vitro JAK kinase assay (HTRF, phosphorylation of a biotinylated peptide), JAK3. As to conditions: Table D1. The essentials: as §1

Structures can show the parent of a compound that is named as a salt.

T2 sequence (O60674 828-1132): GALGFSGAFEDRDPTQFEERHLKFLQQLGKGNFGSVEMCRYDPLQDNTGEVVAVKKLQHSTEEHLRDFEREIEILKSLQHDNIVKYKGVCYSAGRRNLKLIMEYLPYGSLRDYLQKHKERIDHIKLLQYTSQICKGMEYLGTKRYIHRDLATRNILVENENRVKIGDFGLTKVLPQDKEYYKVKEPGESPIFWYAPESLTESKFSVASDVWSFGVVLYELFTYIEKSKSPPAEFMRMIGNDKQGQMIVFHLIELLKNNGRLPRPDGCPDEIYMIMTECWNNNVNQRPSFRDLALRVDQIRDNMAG
Chain of TYK2 (P29597 whole entry): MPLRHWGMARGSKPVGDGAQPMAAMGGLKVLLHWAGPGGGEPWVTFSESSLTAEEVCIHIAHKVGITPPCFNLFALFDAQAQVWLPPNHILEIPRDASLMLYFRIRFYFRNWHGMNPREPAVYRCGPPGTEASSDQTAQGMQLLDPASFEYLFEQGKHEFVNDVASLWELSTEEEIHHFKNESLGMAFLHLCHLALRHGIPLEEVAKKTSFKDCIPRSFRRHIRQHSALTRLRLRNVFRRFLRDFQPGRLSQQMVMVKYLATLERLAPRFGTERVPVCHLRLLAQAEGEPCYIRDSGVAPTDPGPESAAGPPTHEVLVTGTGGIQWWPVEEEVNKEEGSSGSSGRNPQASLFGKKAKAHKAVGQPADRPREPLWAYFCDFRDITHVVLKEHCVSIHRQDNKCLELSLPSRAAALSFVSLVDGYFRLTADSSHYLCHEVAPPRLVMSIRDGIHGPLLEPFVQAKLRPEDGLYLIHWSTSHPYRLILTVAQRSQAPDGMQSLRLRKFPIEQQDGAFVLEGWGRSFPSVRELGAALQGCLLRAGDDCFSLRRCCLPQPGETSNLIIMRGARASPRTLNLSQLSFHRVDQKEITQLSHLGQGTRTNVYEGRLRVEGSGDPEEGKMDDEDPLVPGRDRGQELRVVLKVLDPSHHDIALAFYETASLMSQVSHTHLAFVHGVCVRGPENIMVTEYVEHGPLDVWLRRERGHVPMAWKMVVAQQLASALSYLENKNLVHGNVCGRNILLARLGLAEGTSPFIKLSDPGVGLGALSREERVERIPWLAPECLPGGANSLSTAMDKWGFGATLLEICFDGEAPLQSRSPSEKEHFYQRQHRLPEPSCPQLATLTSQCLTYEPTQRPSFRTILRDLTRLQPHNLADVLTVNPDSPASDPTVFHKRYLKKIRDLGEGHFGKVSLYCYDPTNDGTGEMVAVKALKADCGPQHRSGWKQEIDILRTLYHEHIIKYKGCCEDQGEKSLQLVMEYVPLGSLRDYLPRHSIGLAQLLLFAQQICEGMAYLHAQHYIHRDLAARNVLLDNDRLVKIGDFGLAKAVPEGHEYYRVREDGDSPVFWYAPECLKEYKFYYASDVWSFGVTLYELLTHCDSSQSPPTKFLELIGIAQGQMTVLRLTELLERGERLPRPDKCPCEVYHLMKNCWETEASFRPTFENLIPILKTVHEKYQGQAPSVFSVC
T3 sequence (P52333 781-1124): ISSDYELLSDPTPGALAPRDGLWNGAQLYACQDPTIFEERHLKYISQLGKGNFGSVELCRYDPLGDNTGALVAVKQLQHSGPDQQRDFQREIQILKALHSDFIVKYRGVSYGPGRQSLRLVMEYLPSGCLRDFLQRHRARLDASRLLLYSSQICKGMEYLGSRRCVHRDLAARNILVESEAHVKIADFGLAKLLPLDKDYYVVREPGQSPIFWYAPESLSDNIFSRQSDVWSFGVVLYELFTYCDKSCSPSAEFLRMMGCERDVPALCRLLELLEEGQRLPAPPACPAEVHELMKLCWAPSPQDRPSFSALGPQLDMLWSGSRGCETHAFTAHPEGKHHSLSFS
T1 sequence (P23458 849-1154): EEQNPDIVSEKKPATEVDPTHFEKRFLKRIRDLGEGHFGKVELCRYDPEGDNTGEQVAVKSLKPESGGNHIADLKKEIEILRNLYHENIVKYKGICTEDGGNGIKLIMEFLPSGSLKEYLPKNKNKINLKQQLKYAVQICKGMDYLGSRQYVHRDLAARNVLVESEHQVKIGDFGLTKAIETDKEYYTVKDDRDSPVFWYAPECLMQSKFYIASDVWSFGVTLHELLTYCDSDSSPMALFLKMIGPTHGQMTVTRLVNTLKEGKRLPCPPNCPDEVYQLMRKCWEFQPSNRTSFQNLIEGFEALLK

Consider `N#Cc1ccc(NC(=O)N2CCC(CCOc3ccc4cc3CCc3cncc(c3)Nc3ncc(Cl)c(n3)N4)CC2)cc1` [Example D174, 4-(2-{[6-Chloro-2,4,8,18,22-pentaazatetracyclo[14.3.1.1(3,7).1(9,13)]docosa-1(20),3(22),4,6,9(21),10,12,16,18-nonaen-12-yl]oxy}ethyl)-N-(4-cyanophenyl)piperidine-1-carboxamide bis(trifluoroacetate)], for which the IC50 (in general, the concentration that gives 50% inhibition) is 160 nM in test [1], > 400 nM against TYK2, > 400 nM in test [2] and > 400 nM in test [3].

In the case of `CC1(C)Cc2cccc(NC(=O)N3CCC(CCOc4ccc5cc4CCc4cncc(c4)Nc4ncc(Cl)c(n4)N5)CC3)c2O1` [Example D175, 4-(2-{[6-Chloro-2,4,8,18,22-pentaazatetracyclo[14.3.1.1(3,7).1(9,13)]docosa-1(20),3(22),4,6,9(21),10,12,16,18-nonaen-12-yl]oxy}ethyl)-N-(2,2-dimethyl-2,3-dihydro-1-benzofuran-7-yl)piperidine-1-carboxamide bis(trifluoroacetate)], the IC50 in test [1] is 150 nM; against TYK2, > 400 nM; in test [2], > 400 nM; in test [3], > 400 nM.

On to `O=C(Nc1cccc(N2CCOCC2)n1)N1CCC(CCOc2ccc3cc2CCc2cncc(c2)Nc2ncc(Cl)c(n2)N3)CC1` [Example D176, 4-(2-{[6-Chloro-2,4,8,18,22-pentaazatetracyclo[14.3.1.1(3,7).1(9,13)]docosa-1(20),3(22),4,6,9(21),10,12,16,18-nonaen-12-yl]oxy}ethyl)-N-(6-morpholin-4-ylpyridin-2-yl)piperidine-1-carboxamide tris(trifluoroacetate)], for which the IC50 was 124 nM in test [1], > 400 nM against TYK2, 208 nM in test [2] and > 400 nM in test [3].

For `O=C(c1cnccn1)N1CCC(CCOc2ccc3cc2CCc2cncc(c2)Nc2ncc(Cl)c(n2)N3)CC1` [Example D177, 6-Chloro-12-{2-[1-(pyrazin-2-ylcarbonyl)piperidin-4-yl]ethoxy}-2,4,8,18,22-pentaazatetracyclo[14.3.1.1(3,7).1(9,13)]docosa-1(20),3(22),4,6,9(21),10,12,16,18-nonaene tris(trifluoroacetate)], the IC50 in test [1] was 150 nM; against TYK2, > 400 nM; in test [2], 265 nM; in test [3], > 400 nM.

As to `Cc1oncc1C(=O)N1CCC(CCOc2ccc3cc2CCc2cncc(c2)Nc2ncc(Cl)c(n2)N3)CC1` [Example D178, 6-Chloro-12-(2-{1-[(5-methylisoxazol-4-yl)carbonyl]piperidin-4-yl}ethoxy)-2,4,8,18,22-pentaazatetracyclo[14.3.1.1(3,7).1(9,13)]docosa-1(20),3(22),4,6,9(21),10,12,16,18-nonaene bis(trifluoroacetate)], the half-maximal inhibitory concentration (IC50) is 265 nM in test [1], > 400 nM at TYK2, > 400 nM in test [2] and > 400 nM in test [3].

In the case of `O=C(c1cccnc1Cl)N1CCC(CCOc2ccc3cc2CCc2cncc(c2)Nc2ncc(Cl)c(n2)N3)CC1` [Example D179, 6-Chloro-12-(2-{1-[(2-chloropyridin-3-yl)carbonyl]piperidin-4-yl}ethoxy)-2,4,8,18,22-pentaazatetracyclo[14.3.1.1(3,7).1(9,13)]docosa-1(20),3(22),4,6,9(21),10,12,16,18-nonaene tris(trifluoroacetate)], the IC50 in test [1] was 226 nM; at TYK2 it was > 400 nM; in test [2] it was > 400 nM; in test [3] it was > 400 nM.

Turning to `O=C(c1cccnc1)N1CCC(CCOc2ccc3cc2CCc2cncc(c2)Nc2ncc(Cl)c(n2)N3)CC1` [Example D180, 6-Chloro-12-{2-[1-(pyridin-3-ylcarbonyl)piperidin-4-yl]ethoxy}-2,4,8,18,22-pentaazatetracyclo[14.3.1.1(3,7).1(9,13)]docosa-1(20),3(22),4,6,9(21),10,12,16,18-nonaene tris(trifluoroacetate)], the IC50 is 255 nM in test [1], > 400 nM on TYK2, > 400 nM in test [2] and > 400 nM in test [3].

For the compound `O=C(c1ccncc1)N1CCC(CCOc2ccc3cc2CCc2cncc(c2)Nc2ncc(Cl)c(n2)N3)CC1` [Example D181, 6-Chloro-12-[2-(1-isonicotinoylpiperidin-4-yl)ethoxy]-2,4,8,18,22-pentaazatetracyclo[14.3.1.1(3,7).1(9,13)]docosa-1(20),3(22),4,6,9(21),10,12,16,18-nonaene tris(trifluoroacetate)], the IC50 is 115 nM in test [1], > 400 nM at TYK2, 313 nM in test [2] and > 400 nM in test [3].

As for `O=C(Nc1cccnc1)N1CCC(CCOc2ccc3cc2CCc2cncc(c2)Nc2ncc(Cl)c(n2)N3)CC1` [Example D182, 4-(2-{[6-Chloro-2,4,8,18,22-pentaazatetracyclo[14.3.1.1(3,7).1(9,13)]docosa-1(20),3(22),4,6,9(21),10,12,16,18-nonaen-12-yl]oxy}ethyl)-N-pyridin-3-ylpiperidine-1-carboxamide tris(trifluoroacetate)], the concentration for half-maximal inhibition (IC50) is 68 nM in test [1], > 400 nM at TYK2, 180 nM in test [2] and > 400 nM in test [3].

Consider `COC(=O)Cn1c(=O)oc2c3cc(cc21)Nc1nc(ncc1Cl)Nc1cccc(c1)CC3` [Example D183, Methyl [4-chloro-19-oxo-18-oxa-2,6,8,20,25-pentaazapentacyclo[14.6.1.1(3,7).1(9,13).0(17,21)]pentacosa-1(23),3(25),4,6,9(24),10,12,16,21-nonaen-20-yl]acetate trifluoroacetate], for which the IC50 in test [1] is 12 nM; at TYK2, 166 nM; in test [2] it was 22 nM; in test [3], 64 nM.

Regarding `O=c1[nH]c2cc3cc(c2o1)CCc1cccc(c1)Nc1ncc(Cl)c(n1)N3` [Example D184, 4-Chloro-18-oxa-2,6,8,20,25-pentaazapentacyclo[14.6.1.1(3,7).1(9,13).0(17,21)]pentacosa-1(23),3(25),4,6,9(24),10,12,16,21-nonaen-19-one], the IC50 in test [1] was 0.9 nM; against TYK2, 1.8 nM; in test [2], 2.8 nM; in test [3] it was 21 nM.

For `O=C(Cn1c(=O)oc2c3cc(cc21)Nc1nc(ncc1Cl)Nc1cccc(c1)CC3)Nc1ccccc1` [Example D185, 2-[4-Chloro-19-oxo-18-oxa-2,6,8,20,25-pentaazapentacyclo[14.6.1.1(3,7).1(9,13).0(17,21)]pentacosa-1(23),3(25),4,6,9(24),10,12,16,21-nonaen-20-yl]-N-phenylacetamide trifluoroacetate], the IC50 in test [1] amounted to 108 nM; against TYK2, 742 nM; in test [2], 49 nM; in test [3], 196 nM.

On to `O=C(Cn1c(=O)oc2c3cc(cc21)Nc1nc(ncc1Cl)Nc1cccc(c1)CC3)NCc1ccccc1` [Example D186, N-Benzyl-2-[4-chloro-19-oxo-18-oxa-2,6,8,20,25-pentaazapentacyclo[14.6.1.1(3,7).1(9,13).0(17,21)]pentacosa-1(23),3(25),4,6,9(24),10,12,16,21-nonaen-20-yl]acetamide trifluoroacetate], for which the IC50 in test [1] turned out to be 53 nM; at TYK2, 792 nM; in test [2], 40 nM; in test [3], 162 nM.

As for `O=C(Cn1c(=O)oc2c3cc(cc21)Nc1nc(ncc1Cl)Nc1cccc(c1)CC3)N1CCOCC1` [Example D187, 4-Chloro-20-(2-morpholin-4-yl-2-oxoethyl)-18-oxa-2,6,8,20,25-pentaazapentacyclo[14.6.1.1(3,7).1(9,13).0(17,21)]pentacosa-1(23),3(25),4,6,9(24),10,12,16,21-nonaen-19-one trifluoroacetate], the IC50 in test [1] was 200 nM; on TYK2, > 1000 nM; in test [2], 185 nM; in test [3], 130 nM.

As to `O=C(Cn1c(=O)oc2c3cc(cc21)Nc1nc(ncc1Cl)Nc1cccc(c1)CC3)N1CCN(c2ccccc2)CC1` [Example D188, 4-Chloro-20-[2-oxo-2-(4-phenylpiperazin-1-yl)ethyl]-18-oxa-2,6,8,20,25-pentaazapentacyclo[14.6.1.1(3,7).1(9,13).0(17,21)]pentacosa-1(23),3(25),4,6,9(24),10,12,16,21-nonaen-19-one bis(trifluoroacetate)], the IC50 is 32 nM in test [1], > 1000 nM against TYK2, 32 nM in test [2] and 79 nM in test [3].

In the case of `Clc1cnc2nc1Nc1cccc(c1)OCCc1cc(CN3CCOCC3)cc(c1)N2` [Example D189, 6-Chloro-19-(morpholin-4-ylmethyl)-14-oxa-2,4,8,23-tetraazatetracyclo[15.3.1.1(3,7).1(9,13)]tricosa-1(21),3(23),4,6,9(22),10,12,17,19-nonaene bis(trifluoroacetate)], the IC50 in test [1] stood at 7.6 nM; at TYK2, 5.2 nM; in test [2] it was 0.5 nM; in test [3], 7.3 nM.

For `CN1CCN(Cc2cc3cc(c2)Nc2ncc(Cl)c(n2)Nc2cccc(c2)OCC3)CC1` [Example D190, 6-Chloro-19-[(4-methylpiperazin-1-yl)methyl]-14-oxa-2,4,8,23-tetraazatetracyclo[15.3.1.1(3,7).1(9,13)]tricosa-1(21),3(23),4,6,9(22),10,12,17,19-nonaene tris(trifluoroacetate)], the IC50 is 24 nM in test [1], 3.5 nM at TYK2, 0.9 nM in test [2] and 3 nM in test [3].

(Values after patent US8871753B2, “Macrocyclic compounds and their use as kinase inhibitors” (Incyte Corporation, priority 2008, dated 2014).)
